SMILES strings stand for the structures. Structures can show the parent of a compound that is named as a salt.

`N#Cc1nc2ccccc2c2c1nc(-c1ccccc1)n2CCC1CCNCC1` (as salt: trifluoroacetate) (hydrate or solvate) [Example 117, 4-Cyano-2-phenyl-1-[2-(4-piperidyl)ethyl]-1H-imidazo[4,5-c]quinoline]: the melting point (usually the temperature of the solid-liquid transition) was 245 to 251 °C (dec.). With `Cc1cccc2c1nc(C(F)(F)F)c1nc(-c3ncc[nH]3)n(CCC3CCNCC3)c12` (as salt: trifluoroacetate) (hydrate or solvate) [Example 96, 2-(2-1H-Imidazolyl)-6-methyl-1-[2-(4-piperidyl)ethyl]-4-trifluoromethyl-1H-imidazo[4,5-c]quinoline], the melting point is 306 to 308 °C (dec.). On to `FC(F)(F)c1nc2ccccc2c2c1nc(C1CCCCC1)n2CCC1CCNCC1` (as salt: trifluoroacetate) [Example 71, 2-Cyclohexyl-1-[2-(4-piperidyl)ethyl]-4-trifluoromethyl-1H-imidazo[4,5-c]quinoline], for which the melting point was 182.5 to 184 °C. Under `Fc1ccc2c(c1)nc(C(F)(F)F)c1nc(-c3ccco3)n(CCC3CCNCC3)c12` (as salt: trifluoroacetate) (hydrate or solvate) stands 239 to 241 °C (dec.); under `c1ccc(-c2nc3c(-c4cccs4)nc4ccccc4c3n2CCC2CCNCC2)cc1` (as salt: salt) [Example 115, 2-Phenyl-1-[2-(4-piperidyl)ethyl]-4-(2-thienyl)-1H-imidazo[4,5-c]quinoline], 210 to 212 °C; under `O=C(O)c1nc2ccccc2c2c1nc(-c1ccccc1)n2CCC1CCNCC1` (as salt: trifluoroacetate) (hydrate or solvate) [Example 118, 2-Phenyl-1-[2-(4-piperidyl)ethyl]-1H-imidazo[4,5-c]quinoline-4-carboxylic acid], 212 to 215 °C.

In the case of `Fc1ccc2c(c1)nc(C(F)(F)F)c1nc(-c3cccs3)n(CCC3CCNCC3)c12` (as salt: trifluoroacetate) (hydrate or solvate) [Example 85, 7-Fluoro-1-[2-(4-piperidyl)ethyl]-2-(2-thienyl)-4-trifluoromethyl-1H-imidazo-[4,5-c]quinoline], the melting point is 234 to 235 °C (dec.). As for `FC(F)(F)c1nc2ccccc2c2c1nc(-c1ccc[nH]1)n2CCC1CCNCC1` [Example 64, 1-[2-(4-Piperidyl)ethyl]-2-(2-pyrrolyl)-4-trifluoromethyl-1H-imidazo[4,5-c]-quinoline], the figure is 280 to 282.5 °C (dec.). Under `FC(F)(F)c1nc2cc(Cl)ccc2c2c1nc(C1CCCCC1)n2CCC1CCNCC1` (as salt: trifluoroacetate) [Example 79, 7-Chloro-2-cyclohexyl-1-[2-(4-piperidyl)ethyl]-4-trifluoromethyl-1H-imidazo-[4,5-c]quinoline] stands 236 to 237 °C (dec.); under `FC(F)(F)c1nc2ccccc2c2c1nc(-c1nccs1)n2CCC1CCNCC1` [Example 70, 1-[2-(4-Piperidyl)ethyl]-2-(2-thiazolyl)-4-trifluoromethyl-1H-imidazo[4,5-c]-quinoline], 199 to 200 °C.

In the case of `CN(C)CC(=O)NCCn1c(-c2ccccc2)nc2c(C(F)(F)F)nc3ccccc3c21.O=C(O)/C=C/C(=O)O` [Example 128, 2-Dimethylamino-N-[2-(2-phenyl-4-trifluoromethyl-1H-imidazo[4,5-c]quinolin-1-yl)-ethyl]acetamide fumarate], the melting point was 207.5 to 208 °C.

In turn, `NCCn1c(-c2ccccc2)nc2c(C(F)(F)F)nc3ccccc3c21` [Example 108, 1-(2-Aminoethyl)-2-phenyl-4-trifluoromethyl-1H-imidazo[4,5-c]quinoline] returned a melting point of 174.5 to 175.5 °C.

For the molecule `Cc1cccc2c1nc(C(F)(F)F)c1nc(-c3ccc[nH]3)n(CCC3CCNCC3)c12` (as salt: trifluoroacetate) (hydrate or solvate) [Example 94, 6-Methyl-1-[2-(4-piperidyl)ethyl]-2-(2-pyrrolyl)-4-trifluoromethyl-1H-imidazo-[4,5-c]quinoline], the melting point was 233 to 234 °C (dec.). As for `Cc1ccc2c(c1)nc(C(F)(F)F)c1nc(-c3ccccc3O)n(CCC3CCNCC3)c12` (as salt: trifluoroacetate), the figure is 161 to 162 °C. As for `c1c[nH]c(-c2nc3c(C4CC4)nc4ccccc4c3n2CCC2CCNCC2)c1` (hydrate or solvate) [Example 111, 4-Cyclopropyl-1-[2-(4-piperidyl)ethyl]-2-(2-pyrrolyl)-1H-imidazo[4,5-c]quinoline], the figure is 212 to 213.5 °C. As for `Cc1cccc2c1nc(C(F)(F)F)c1nc(-c3ccccc3)n(CCC3CCNCC3)c12` (as salt: trifluoroacetate) [Example 93, 6-Methyl-2-phenyl-1-[2-(4-piperidyl)ethyl]-4-trifluoromethyl-1H-imidazo-[4,5-c]quinoline], the figure is 218 to 219 °C (dec.); as for `NCC(=O)NCCn1c(-c2ccc[nH]2)nc2c(C(F)(F)F)nc3ccccc3c21.O=C(O)/C=C/C(=O)O` [Example 131, 2-Amino-N-[2-[2-(2-pyrrolyl)-4-trifluoromethyl-1H-imidazo[4,5-c]quinolin-1-yl]ethyl]-acetamide fumarate], 176 to 177 °C (dec.). As to `FC(F)(F)c1nc2cc(Cl)ccc2c2c1nc(-c1ncc[nH]1)n2CCC1CCNCC1` (as salt: trifluoroacetate) [Example 75, 7-Chloro-2-(2-1H-imidazolyl)-1-[2-(4-piperidyl)ethyl]-4-trifluoromethyl-1H-imidazo[4,5-c]quinoline], the melting point was 290 to 295 °C (dec.). As for `Fc1ccc2c(c1)nc(C(F)(F)F)c1nc(-c3ccccc3)n(CCC3CCNCC3)c12` (as salt: trifluoroacetate) [Example 80, 7-Fluoro-2-phenyl-1-[2-(4-piperidyl)ethyl]-4-trifluoromethyl-1H-imidazo[4,5-c]-quinoline], the figure is 240 to 242 °C (dec.); as for `FC(F)(F)c1nc2ccccc2c2c1nc(-c1ccccc1)n2CCN1CCNCC1` [Example 99, 2-Phenyl-1-[2-(1-piperazinyl)ethyl]-4-trifluoromethyl-1H-imidazo[4,5-c]-quinoline], 187 to 188 °C.

As to `c1ccc(-c2nc3ccccc3c3c2nc(-c2ccc[nH]2)n3CCC2CCNCC2)cc1` (hydrate or solvate) [Example 113, 4-Phenyl-1-[2-(4-piperidyl)ethyl]-2-(2-pyrrolyl)-1H-imidazo[4,5-c]quinoline], the melting point fell in the range of 268 to 270 °C. For the molecule `FC(F)(F)c1nc2ccccc2c2c1nc(-c1ccco1)n2CCC1CCNCC1` (as salt: trifluoroacetate) (hydrate or solvate), the melting point is 133.5 to 136.5 °C (dec.). For `Fc1ccc2c(c1)nc(C(F)(F)F)c1nc(-c3nccs3)n(CCC3CCNCC3)c12` (as salt: trifluoroacetate) [Example 82, 7-Fluoro-1-[2-(4-piperidyl)ethyl]-2-(2-thiazolyl)-4-trifluoromethyl-1H-imidazo-[4,5-c]quinoline], the melting point was 236 to 237 °C (dec.). As for `FC(F)(F)c1nc2cc(Cl)ccc2c2c1nc(-c1ccco1)n2CCC1CCNCC1` (as salt: trifluoroacetate), the figure is 219 to 221 °C (dec.); as for `c1ccc(-c2nc3ccccc3c3c2nc(-c2ccccc2)n3CCC2CCNCC2)cc1` [Example 112, 2,4-Diphenyl-1-[2-(4-piperidyl)ethyl]-1H-imidazo[4,5-c]quinoline], 209 to 211 °C; as for `Cc1ccc2c(c1)nc(C(F)(F)F)c1nc(-c3ccc[nH]3)n(CCC3CCNCC3)c12` (as salt: trifluoroacetate) (hydrate or solvate) [Example 87, 7-Methyl-1-[2-(4-piperidyl)ethyl]-2-(2-pyrrolyl)-4-trifluoromethyl-1H-imidazo-[4,5-c]quinoline], 280 to 284 °C (dec.). Consider `FC(F)(F)c1nc2ccccc2c2c1nc(-c1ccccc1)n2CCC1CCCNC1` (stereo not drawn) (as salt: trifluoroacetate), for which the melting point was 229.5 to 231.5 °C (dec.). Under `Cc1ccc2c(c1)nc(C(F)(F)F)c1nc(-c3ccccc3)n(CCC3CCNCC3)c12` (as salt: trifluoroacetate) [Example 86, 7-Methyl-2-phenyl-1-[2-(4-piperidyl)ethyl]-4-trifluoromethyl-1H-imidazo[4,5-c]-quinoline] stands 234 to 235 °C (dec.); under `FC(F)(F)c1nc2cc(Cl)ccc2c2c1nc(-c1nccs1)n2CCC1CCNCC1` [Example 74, 7-Chloro-1-[2-(4-piperidyl)ethyl]-2-(2-thiazolyl)-4-trifluoromethyl-1H-imidazo-[4,5-c]quinoline], 232.5 to 234 °C (dec.). As for `FC(F)(F)c1nc2ccccc2c2c1nc(-c1ccccc1)n2CCC1CNCCO1` (stereo not drawn) (as salt: trifluoroacetate) (hydrate or solvate) [Example 101, 1-[2-(2-Morpholinyl)ethyl]-2-phenyl-4-trifluoromethyl-1H-imidazo[4,5-c]-quinoline], the figure is 224 to 228 °C (dec.); as for `FC(F)(F)c1nc2cc(Cl)ccc2c2c1nc(-c1cccs1)n2CCC1CCNCC1` (as salt: trifluoroacetate) (hydrate or solvate) [Example 77, 7-Chloro-1-[2-(4-piperidyl)ethyl]-2-(2-thienyl)-4-trifluoromethyl-1H-imidazo-[4,5-c]quinoline], 217 to 219 °C (dec.); as for `FC(F)(F)c1nc2ccccc2c2c1nc(-c1cccs1)n2CCC1CCNCC1` (as salt: trifluoroacetate) (hydrate or solvate) [Example 66, 1-[2-(4-Piperidyl)ethyl]-2-(2-thienyl)-4-trifluoromethyl-1H-imidazo[4,5-c]-quinoline], 237 to 239 °C. As for `Cc1cccc2c1nc(C(F)(F)F)c1nc(-c3nccs3)n(CCC3CCNCC3)c12` (as salt: trifluoroacetate) [Example 95, 6-Methyl-1-[2-(4-piperidyl)ethyl]-2-(2-thiazolyl)-4-trifluoromethyl-1H-imidazo-[4,5-c]quinoline], the figure is 243 to 245 °C (dec.).
